# Experiments:
# TNF-α = test: Production quantity of TNF-α of epididymal adipose tissue from treated ZDF rats (culture supernatant, ELISA); format: in vivo, rat; conditions: 45th day
# Method: (§1) In Example 2, the same Test Sample and the negative sample as those prepared in Example 1 were used.
# (§2) After 1 hour of the culture, culture supernatants were collected, and concentrations of TNF-α and MCP-1 in the culture supernatants were measured by ELISA method (Biosource).
# [1] = system: ZDF (Zucker Diabetic Fatty) rats; test: Insulin tolerance test in ZDF rats; format: in vivo, rat; conditions: 35th day; 37.5 μg/kg orally once a day; human insulin 10 U/Kg i.p. after 4 hours fasting; 15 to 60 minutes after insulin; FIG. 1
# Method: In Example 3, the same Test Sample and the negative sample as those prepared in Examples 1 and 2 were used.
# The semice were divided into groups, each consisting of 6 rats. […] In the present example, the insulin tolerance test was performed in such a manner that: the rats were fasted for 4 hours, and were then intraperitoneally administered with 10 U/Kg of body weight of a human insulin (Eli Lily and Company); and changes with time in blood glucose level were measured from the initiation of the administration of the insulin to after 60 minutes later.
# [2] = system: ZDF (Zucker Diabetic Fatty) rats; conditions: serum
# Method: 3-O-β-D-glucopyranosyl-4-methylergost-7-en-3-ol produced in Preparation Example 1 was dissolved in DMSO, and the concentration was adjusted to 15 μg/ml with distilled water to thereby prepare Test Sample. In this case, the final DMSO concentration was adjusted to 0.2%. Furthermore, a solution without the test samples was prepared as a negative sample.
# 6-week-old male ZDF rats (purchased from Charles River Laboratories, Inc., USA) were preliminarily fed with a high-fat diet (Research Diet, Inc.) for 1 month. These rats were divided into groups, each consisting of 6 rats. Each of the groups of rats was orally administered with 1 ml per 400 g of body weight (37.5 μg/kg of body weight) of the Test Sample or the negative sample once a day everyday with a sonde. On the 45th day from the initiation of the administration of the samples, blood was collected from the rats under fasting, and the level of the free fatty acid in serum were measured by using NEFA C-test Wako (Wako Pure Chemical Industries, Ltd.).
# MCP-1 = test: Production quantity of MCP-1 of epididymal adipose tissue from treated ZDF rats (culture supernatant, ELISA); format: in vivo, rat; conditions: 45th day
# Method: as §1, §2
# [3] = WO 2006/035525; cited from earlier work
# [4] = adipose tissue, Tukey-Kramer's test
# [5] = culture supernatant of epididymal fat tissue after 1 hour at 37° C., 37.5 μg/kg orally once a day
structure (smiles),measurement,setting,value
"CC1C(O[C@@H]2O[C@H](CO)[C@@H](O)[C@H](O)[C@H]2O)CC[C@@]2(C)C1CC=C1[C@@H]3CC[C@H]([C@H](C)CC[C@H](C)C(C)C)[C@@]3(C)CC[C@@H]12 (stereo partly drawn) [Test Sample, 3-O-β-D-glucopyranosyl-4-methylergost-7-en-3-ol]",inhibitory effect on the production of TNF-α compared with negative sample group,TNF-α; [4],significant inhibitory effects
same,TNF-α,TNF-α; [5],117.4 ± 47.9 pg/mL
same,blood glucose level in insulin tolerance test compared with negative sample group,[1],lower blood glucose levels
same,free fatty acid levels compared with the group administered with the negative sample,"[2]; 45th day, 37.5 μg/kg orally once a day, decreased to this % of negative sample group",53%
same,Free fatty acid,"[2]; fasting, 45th day of administration, 37.5 μg/kg of body weight orally once a day, male ZDF rats on high-fat diet",1.948 ± 0.648 mEq/l
same,inhibitory effect on the production of MCP-1 compared with negative sample group,MCP-1; [4],significant inhibitory effects
same,MCP-1,MCP-1; [5],23.3 ± 3.6 pg/mL
same,effect on hemoglobin Alc level,[3],decreasing hemoglobin Alc level
same,effect on hyperglycemia,[3],improving hyperglycemia

# Source: US8236769B2, “Agent for improving insulin resistance” (Morinaga Milk Industry Co., Ltd., priority 2005, dated 2012)
